The source of these data is patent US12427187B2, “Glucose-responsive insulin conjugates” (priority 2019, dated 2025).

Molecules are shown by their SMILES. pIC50: −log10 of the molar value.

The target in one test is T1, Human macrophage mannose receptor 1 (MRC1) (Homo sapiens, UniProt P22897).
T1 sequence (P22897 19-1456): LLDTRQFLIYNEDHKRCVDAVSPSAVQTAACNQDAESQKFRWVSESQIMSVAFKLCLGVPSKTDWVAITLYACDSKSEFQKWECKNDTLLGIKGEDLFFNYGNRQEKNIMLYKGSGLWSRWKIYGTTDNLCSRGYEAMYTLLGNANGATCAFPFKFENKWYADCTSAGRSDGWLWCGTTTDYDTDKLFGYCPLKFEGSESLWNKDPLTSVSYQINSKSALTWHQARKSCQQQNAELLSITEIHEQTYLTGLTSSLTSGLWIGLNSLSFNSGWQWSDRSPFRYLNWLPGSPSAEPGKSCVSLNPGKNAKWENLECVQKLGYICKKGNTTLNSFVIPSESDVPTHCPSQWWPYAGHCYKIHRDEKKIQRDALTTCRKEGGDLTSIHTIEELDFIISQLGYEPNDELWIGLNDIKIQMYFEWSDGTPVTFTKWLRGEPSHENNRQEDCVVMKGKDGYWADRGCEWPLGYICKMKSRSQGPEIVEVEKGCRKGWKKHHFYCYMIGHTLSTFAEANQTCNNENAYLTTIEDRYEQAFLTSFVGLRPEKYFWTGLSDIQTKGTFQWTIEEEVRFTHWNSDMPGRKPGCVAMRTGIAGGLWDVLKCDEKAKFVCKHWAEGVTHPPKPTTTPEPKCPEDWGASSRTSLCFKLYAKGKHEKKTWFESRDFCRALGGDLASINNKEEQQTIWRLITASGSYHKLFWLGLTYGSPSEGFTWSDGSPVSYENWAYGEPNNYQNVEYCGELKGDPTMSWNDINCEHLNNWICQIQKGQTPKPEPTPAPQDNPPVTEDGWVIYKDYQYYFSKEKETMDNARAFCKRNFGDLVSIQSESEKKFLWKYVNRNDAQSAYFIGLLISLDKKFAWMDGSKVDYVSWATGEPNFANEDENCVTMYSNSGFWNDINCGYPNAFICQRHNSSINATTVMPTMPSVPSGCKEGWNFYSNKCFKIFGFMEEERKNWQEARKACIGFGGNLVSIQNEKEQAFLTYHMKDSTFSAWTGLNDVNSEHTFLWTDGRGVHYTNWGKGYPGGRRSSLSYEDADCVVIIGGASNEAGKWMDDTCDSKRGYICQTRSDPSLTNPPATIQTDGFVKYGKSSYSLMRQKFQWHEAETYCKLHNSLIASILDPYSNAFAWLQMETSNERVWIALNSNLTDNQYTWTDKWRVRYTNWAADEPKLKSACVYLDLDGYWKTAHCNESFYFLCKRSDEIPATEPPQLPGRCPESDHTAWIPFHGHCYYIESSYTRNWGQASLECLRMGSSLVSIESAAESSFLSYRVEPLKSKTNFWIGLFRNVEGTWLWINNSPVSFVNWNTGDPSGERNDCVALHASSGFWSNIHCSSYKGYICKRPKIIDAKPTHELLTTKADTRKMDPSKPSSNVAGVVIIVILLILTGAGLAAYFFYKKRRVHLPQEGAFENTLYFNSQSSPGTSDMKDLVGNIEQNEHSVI
The experiment in a line: MRC1 competition binding assay with Eu-mannosylated-BSA. As to conditions: MRC1 Binding IP, Method F: 384-well plate; IP = inflection point.
Experimental: The competition binding assay for Human macrophage mannose receptor 1 (MRC1) utilized a ligand, mannosylated-BSA labeled with the DELFIA Eu-N1-ITC reagent, as reported in the literature. Assay was performed either in a 96-well plate with 100 μL well volume (Method E) or in a 384-well plate with 25 μL well volume (Method F). […] The antibody was incubated in the plate for 1 hr at rt with shaking. The plate was washed with wash buffer 3-5 times followed by addition of MRC1 (2 ng/μl final concentration) in PBS containing 1% stabilizer BSA. The plate was incubated at rt with gentle shaking for 1 hr. The plate was washed three times with wash buffer. The IOC molecules in 12.5 μL (or 50 μL depending on plate format) buffer at appropriate concentrations were added followed by 12.5 μL (or 50 μL) Eu-mannosylated-BSA (0.1 nm final concentration) in 50 mM Tris, pH 7.5 containing 100 mM NaCl, 5 mM CaCl2, 1 mM MgCl2 and 0.2% stabilizer BSA. The plate was incubated for 2 hrs at rt with shaking followed by washing three times with wash buffer.
On to `CC(=O)[C@H](CCCCN)NC(=O)CCCCCNC(=O)[C@H](CCCCNC(=O)CCCCCNC(=O)CN(CC(=O)NCCO[C@@H]1O[C@@H](C)[C@@H](O)[C@@H](O)[C@@H]1O)CC(=O)NCCO[C@@H]1O[C@@H](C)[C@@H](O)[C@@H](O)[C@@H]1O)NC(=O)[C@H](CCCCNC(=O)CCCCCNC(=O)CN(CC(N)=O)CC(=O)NCCO[C@@H]1CC(C)[C@@H](O)[C@@H](O)[C@@H]1O)NC(=O)CCCCCNC(=O)CN(CC(=O)NCCO[C@@H]1O[C@@H](C)[C@@H](O)[C@@H](O)[C@@H]1O)CC(=O)NCCO[C@@H]1O[C@@H](C)[C@@H](O)[C@@H](O)[C@@H]1O` (some centres unmarked) [IOC-41], for which the pIC50 is 8.22.

The same test, now with this note: Method E: 96-well plate; IP = inflection point; read-out: MRC1 Binding IP.
As to `CC(=O)[C@H](CCCCN)NC(=O)CCCCCNC(=O)[C@H](CCCCNC(=O)CCCCCNC(=O)CN(CC(=O)NCCO[C@H]1O[C@H](CO)[C@@H](O)[C@H](O)[C@@H]1O)CC(=O)NCCO[C@H]1O[C@H](CO[C@H]2O[C@H](CO)[C@@H](O)[C@H](O)[C@@H]2O)[C@@H](O)[C@H](O[C@H]2O[C@H](CO)[C@@H](O)[C@H](O)[C@@H]2O)[C@@H]1O)NC(=O)[C@H](CCCCNC(=O)CCCCCNC(=O)CN(CC(=O)NCCO[C@H]1O[C@H](CO)[C@@H](O)[C@H](O)[C@@H]1O)CC(=O)NCCO[C@H]1O[C@H](CO[C@H]2O[C@H](CO)[C@@H](O)[C@H](O)[C@@H]2O)[C@@H](O)[C@H](O[C@H]2O[C@H](CO)[C@@H](O)[C@H](O)[C@@H]2O)[C@@H]1O)NC(=O)CCCCCNC(=O)CN(CC(=O)NCCO[C@H]1O[C@H](CO)[C@@H](O)[C@H](O)[C@@H]1O)CC(=O)NCCO[C@H]1O[C@H](CO[C@H]2O[C@H](CO)[C@@H](O)[C@H](O)[C@@H]2O)[C@@H](O)[C@H](O[C@H]2O[C@H](CO)[C@@H](O)[C@H](O)[C@@H]2O)[C@@H]1O` [IOC-39], the pIC50 was 8.62.

Still in this test, the particulars now being: Method F: 384-well plate; IP = inflection point; read-out: MRC1 Binding IP.
`CC(=O)[C@H](CCCCN)NC(=O)CCCCC(=O)NCC(=O)N[C@@H](CCC(=O)N[C@@H](CCC(=O)NCCCCCC(=O)N(CCOC1O[C@H](CO)[C@@H](O)[C@H](O)[C@@H]1O)CCO[C@H]1O[C@H](CO)[C@@H](O)[C@H](O)[C@@H]1O)C(=O)NCCCCCC(=O)N(CCOC1O[C@H](CO)[C@@H](O)[C@H](O)[C@@H]1O)CCOC1O[C@H](CO)[C@@H](O)[C@H](O)[C@@H]1O)C(=O)NCCCCCC(=O)NCCO[C@H]1O[C@H](CO[C@H]2O[C@H](CO)[C@@H](O)[C@H](O)[C@@H]2O)[C@@H](O)[C@H](O[C@H]2O[C@H](CO)[C@@H](O)[C@H](O)[C@@H]2O)[C@@H]1O` (some centres unmarked) [IOC-30]: the pIC50 is 7.43.

Turning to `CC(=O)[C@H](CCCCN)NC(=O)CCCCC(=O)NCC(=O)N[C@@H](CCC(=O)N[C@@H](CCC(=O)NCCCCCC(=O)N(CCOC1O[C@H](CO)[C@@H](O)[C@H](O)[C@@H]1O)CCO[C@H]1O[C@H](CO)[C@@H](O)[C@H](O)[C@@H]1O)C(=O)NCCCCCC(=O)N(CCOC1O[C@H](CO)[C@@H](O)[C@H](O)[C@@H]1O)CCOC1O[C@H](CO)[C@@H](O)[C@H](O)[C@@H]1O)C(=O)NCCCCCC(=O)NCCO[C@H]1O[C@H](CO[C@H]2O[C@H](CO)[C@@H](O)[C@H](O)[C@@H]2O)[C@@H](O)[C@H](O[C@H]2O[C@H](CO)[C@@H](O)[C@H](O)[C@@H]2O)[C@@H]1O` (some centres unmarked) [IOC-32], the pIC50 is 6.22.

On to `CC(=O)[C@H](CCCCN)NC(=O)CCCCC(=O)NCC(=O)N[C@@H](CCC(=O)N[C@@H](CCC(=O)NCCCCCC(=O)N(CCOC1O[C@H](CO)[C@@H](O)[C@H](O)[C@@H]1O)CCO[C@H]1O[C@H](CO)[C@@H](O)[C@H](O)[C@@H]1O)C(=O)NCCCCCC(=O)N(CCOC1O[C@H](CO)[C@@H](O)[C@H](O)[C@@H]1O)CCOC1O[C@H](CO)[C@@H](O)[C@H](O)[C@@H]1O)C(=O)NCCCCCC(=O)NCCO[C@H]1O[C@H](CO[C@H]2O[C@H](CO)[C@@H](O)[C@H](O)[C@@H]2O)[C@@H](O)[C@H](O[C@H]2O[C@H](CO)[C@@H](O)[C@H](O)[C@@H]2O)[C@@H]1O` (some centres unmarked) [IOC-33], for which the pIC50 was 8.00.

`CC(=O)[C@H](CCCCN)NC(=O)CCCCC(=O)NCC(=O)N[C@@H](CCC(=O)N[C@@H](CCC(=O)NCCCCCC(=O)N(CCOC1O[C@H](CO)[C@@H](O)[C@H](O)[C@@H]1O)CCO[C@H]1O[C@H](CO)[C@@H](O)[C@H](O)[C@@H]1O)C(=O)NCCCCCC(=O)N(CCOC1O[C@H](CO)[C@@H](O)[C@H](O)[C@@H]1O)CCOC1O[C@H](CO)[C@@H](O)[C@H](O)[C@@H]1O)C(=O)NCCCCCC(=O)NCCO[C@H]1O[C@H](CO[C@H]2O[C@H](CO)[C@@H](O)[C@H](O)[C@@H]2O)[C@@H](O)[C@H](O[C@H]2O[C@H](CO)[C@@H](O)[C@H](O)[C@@H]2O)[C@@H]1O` (some centres unmarked) [IOC-34]: the pIC50 was 8.10.

As to `CC(=O)[C@H](CCCCN)NC(=O)CCCCC(=O)NCC(=O)N[C@@H](CCC(=O)N[C@@H](CCC(=O)NCCCCCC(=O)N(CCOC1O[C@H](CO)[C@@H](O)[C@H](O)[C@@H]1O)CCO[C@H]1O[C@H](CO)[C@@H](O)[C@H](O)[C@@H]1O)C(=O)NCCCCCC(=O)N(CCOC1O[C@H](CO)[C@@H](O)[C@H](O)[C@@H]1O)CCOC1O[C@H](CO)[C@@H](O)[C@H](O)[C@@H]1O)C(=O)NCCCCCC(=O)NCCO[C@H]1O[C@H](CO[C@H]2O[C@H](CO)[C@@H](O)[C@H](O)[C@@H]2O)[C@@H](O)[C@H](O[C@H]2O[C@H](CO)[C@@H](O)[C@H](O)[C@@H]2O)[C@@H]1O` (some centres unmarked) [IOC-35], the pIC50 is 7.78.

As for `CC(=O)[C@H](CCCCN)NC(=O)CCCCC(=O)NCC(=O)N[C@@H](CCC(=O)N[C@@H](CCC(=O)NCCCCCC(=O)N(CCOC1O[C@H](CO)[C@@H](O)[C@H](O)[C@@H]1O)CCOC1O[C@H](CO)[C@@H](O)[C@H](O)[C@@H]1O)C(=O)NCCCCCC(=O)N(CCOC1O[C@H](CO)[C@@H](O)[C@H](O)[C@@H]1O)CCOC1O[C@H](CO)[C@@H](O)[C@H](O)[C@@H]1O)C(=O)NCCCCCC(=O)NCCO[C@H]1O[C@H](CO[C@H]2O[C@H](CO)[C@@H](O)[C@H](O)[C@@H]2O)[C@@H](O)[C@H](O[C@H]2O[C@H](CO)[C@@H](O)[C@H](O)[C@@H]2O)[C@@H]1O` (some centres unmarked) [IOC-38], the pIC50 is 8.01.

In the case of `CC(=O)[C@H](CCCCN)NC(=O)CCCCCNC(=O)[C@H](CCCCNC(=O)CCCCCNC(=O)CN(CC(=O)NCCO[C@H]1O[C@H](CO)[C@@H](O)[C@H](O)[C@@H]1O)CC(=O)NCCO[C@H]1O[C@H](CO)[C@@H](O)[C@H](O)[C@@H]1O)NC(=O)[C@H](CCCCNC(=O)CCCCCNC(=O)CN(CC(=O)NCCO[C@H]1O[C@H](CO)[C@@H](O)[C@H](O)[C@@H]1O)CC(=O)NCCO[C@H]1O[C@H](CO)[C@@H](O)[C@H](O)[C@@H]1O)NC(=O)CCCCCNC(=O)CN(CC(=O)NCCO[C@H]1O[C@H](CO)[C@@H](O)[C@H](O)[C@@H]1O)CC(=O)NCCO[C@H]1O[C@H](CO)[C@@H](O)[C@H](O)[C@@H]1O` [IOC-40], the pIC50 is 7.61.

Turning to `CC(=O)[C@H](CCCCN)NC(=O)CCCCCNC(=O)[C@H](CCCCNC(=O)CCOCCOCCNC(=O)CN(CC(=O)NCCO[C@@H]1O[C@@H](C)[C@@H](O)[C@@H](O)[C@@H]1O)CC(=O)NCCO[C@@H]1O[C@@H](C)[C@@H](O)[C@@H](O)[C@@H]1O)NC(=O)[C@H](CCCCNC(=O)CCOCCOCCNC(=O)CN(CC(=O)NCCO[C@@H]1O[C@@H](C)[C@@H](O)[C@@H](O)[C@@H]1O)CC(=O)NCCO[C@@H]1O[C@@H](C)[C@@H](O)[C@@H](O)[C@@H]1O)NC(=O)CCOCCOCCNC(=O)CN(CC(=O)NCCO[C@@H]1O[C@@H](C)[C@@H](O)[C@@H](O)[C@@H]1O)CC(=O)NCCO[C@@H]1O[C@@H](C)[C@@H](O)[C@@H](O)[C@@H]1O` [IOC-43], the pIC50 was 8.08.

For the compound `CC(=O)[C@H](CCCCN)NC(=O)CCCCCNC(=O)[C@H](CCCCNC(=O)[C@H](CCCCNC(=O)CCCCCNC(=O)CN(CC(=O)NCCO[C@@H]1O[C@@H](C)[C@@H](O)[C@@H](O)[C@@H]1O)CC(=O)NCCO[C@@H]1O[C@@H](C)[C@@H](O)[C@@H](O)[C@@H]1O)NC(=O)CN(CC(=O)NCCO[C@@H]1O[C@@H](C)[C@@H](O)[C@@H](O)[C@@H]1O)CC(=O)NCCO[C@@H]1O[C@@H](C)[C@@H](O)[C@@H](O)[C@@H]1O)NC(=O)CN(CC(=O)NCCO[C@@H]1O[C@@H](C)[C@@H](O)[C@@H](O)[C@@H]1O)CC(=O)NCCO[C@@H]1O[C@@H](C)[C@@H](O)[C@@H](O)[C@@H]1O` [IOC-45], the pIC50 is 8.05.
